{
  "source": "paper PMC10245392",
  "about": "“Fed- and Fasted-State Performance of Pretomanid Amorphous Solid Dispersions Formulated with an Enteric Polymer” (Molecular Pharmaceutics, 2023)",
  "key": {"[1]": {"details": "cited from earlier work"}, "[2]": {"test": "Glass transition temperature by DSC", "format": "physicochemical", "details": "for reduced glass transition temperature (Tg/Tm): calculated as Tg/Tm", "protocol": "The glass transition temperature (Tg) of ASD samples was measured by a TA Q2000 differential scanning calorimeter (DSC) equipped with an RCS90 refrigeration unit (TA Instruments, New Castle, DE). The temperature calibration was performed using indium and tin, while enthalpy calibration was conducted with indium. The samples (5–10 mg) were added to aluminum pans with a pinhole lid (Tzero pan, TA Instrument, DE). The sample was equilibrated at −20 °C and heated from −20 to 210 °C at 5 °C/min then cooled back down to −20 °C at 10 °C/min under a nitrogen flow of 50 mL/min. The heating and cooling cycle was repeated three times to remove residual solvent and thermal history, and the last cycle was used for analysis."}, "[3]": {"details": "the highest pKa value at 25 °C; ref 42 and references of Table S2; cited from earlier work"}, "[4]": {"details": "monkeys, PTM suspension in 0.5% sodium carboxymethyl cellulose; cited from earlier work"}, "[5]": {"details": "rats, PTM with hydroxypropyl-β-cyclodextrin; cited from earlier work"}, "[6]": {"test": "Drug nucleation induction time (UV extinction at 440 nm)", "format": "physicochemical", "details": "for induction time at 160 μg/mL: no polymer, 37 °C"}, "[7]": {"details": "guinea pig, in vivo; cited from earlier work"}, "[8]": {"details": "humans, 200 mg PTM with high-calorie, high-fat meal; cited from earlier work"}, "physchem [9]": {"test": "physchem", "details": "kinetic from dmso stock"}, "[10]": {"test": "not given", "remark": "listed apart in the source"}, "physchem [11]": {"test": "physchem"}},
  "note": "Where “and” joins values, the source holds several entries; their conditions need not be identical. Equal values may be shown once. Read-outs that look alike come from different tables or passages of the source.",
  "data": [
    {"compound": "C[C@]1(COc2ccc(N3CCC(Oc4ccc(OC(F)(F)F)cc4)CC3)cc2)Cn2cc([N+](=O)[O-])nc2O1", "note": "[delamanid]", "values": [
      {"measurement": "Tg (glass transition temperature)", "setting": "[1]; neat drug", "value": "~43", "unit": "°C"},
      {"measurement": "reduced glass transition temperature (Tg/Tm)", "setting": "[2]", "value": 0.64}
    ]},
    {"compound": "CN(C)CCO", "note": "[2-Dimethylaminoethanol]", "values": [
      {"measurement": "pKa", "setting": "[3]", "value": 9.23}
    ]},
    {"compound": "O=[N+]([O-])c1cn2c(n1)OC[C@@H](OCc1ccc(OC(F)(F)F)cc1)C2", "note": "[PTM, Pretomanid]", "values": [
      {"measurement": "mean oral bioavailability", "setting": "[4]", "value": 19, "unit": "%"},
      {"measurement": "mean oral bioavailability", "setting": "[5]", "value": 52, "unit": "%"},
      {"measurement": "induction time", "setting": "[6]", "value": "77.6 ± 13.6 min and ~77 min"},
      {"measurement": "induction time at 160 μg/mL", "setting": "[6]; FaSSIF V1 (pH 6.5)", "value": "0.9 ± 0.3", "unit": "min"},
      {"measurement": "induction time at 160 μg/mL", "setting": "[6]; HCl solution (pH 1.6)", "value": "1.6 ± 0.2", "unit": "min"},
      {"measurement": "induction time", "setting": "[6]; PTM 80 μg/mL, PB (pH 6.5), 100 μg/mL HPMC", "value": "~22", "unit": "min"},
      {"measurement": "nucleation induction time in solution", "setting": "[6]; media of Table 2, no polymer", "value": "less than 2 min"},
      {"measurement": "induction time (no crystallization observed up to)", "setting": "[6]; pH 6.5", "value": "> 1000", "unit": "min"},
      {"measurement": "induction time at 160 μg/mL", "setting": "[6]; phosphate buffer (pH 3.0)", "value": "1.3 ± 0.1", "unit": "min"},
      {"measurement": "induction time at 160 μg/mL", "setting": "[6]; phosphate buffer (pH 5.0)", "value": "1.6 ± 0.2", "unit": "min"},
      {"measurement": "induction time at 160 μg/mL", "setting": "[6]; phosphate buffer (pH 6.5)", "value": "1.4 ± 0.2", "unit": "min"},
      {"measurement": "water solubility", "setting": "[1]", "value": "0.01 to 0.02", "unit": "mg/mL"},
      {"measurement": "systemic exposure", "setting": "[7]", "value": "6.7–13.5%"},
      {"measurement": "increase in AUC0-inf with food", "setting": "[8]", "value": 88, "unit": "%"},
      {"measurement": "increase in Cmax with food", "setting": "[8]", "value": 76, "unit": "%"},
      {"measurement": "A/C ratio (amorphous/crystalline solubility ratio)", "setting": "HCl solution (pH 1.6)", "value": 9.3},
      {"measurement": "amorphous/crystalline solubility (A/C) ratio", "setting": "buffer solutions, overall", "value": "8–10"},
      {"measurement": "A/C ratio (amorphous/crystalline solubility ratio)", "setting": "phosphate buffer (pH 3.0)", "value": 8.1},
      {"measurement": "A/C ratio (amorphous/crystalline solubility ratio)", "setting": "phosphate buffer (pH 5.0)", "value": 9.5},
      {"measurement": "A/C ratio (amorphous/crystalline solubility ratio)", "setting": "phosphate buffer (pH 6.5)", "value": 10.2},
      {"measurement": "solubility", "setting": "physchem [9]; pH 1.6, simulated gastric fluid", "value": "0.141 ± 0.0037", "unit": "mg/mL"},
      {"measurement": "solubility", "setting": "physchem [9]; pH 3, aqueous buffer", "value": "0.143 ± 0.0024", "unit": "mg/mL"},
      {"measurement": "solubility", "setting": "physchem [9]; pH 5, aqueous buffer", "value": "0.16 ± 0.0057", "unit": "mg/mL"},
      {"measurement": "solubility", "setting": "physchem [9]; pH 6.5, aqueous buffer", "value": "0.166 ± 0.0062", "unit": "mg/mL"},
      {"measurement": "solubility", "setting": "physchem [9]; pH 6.5, fassif", "value": "0.308 ± 0.012", "unit": "mg/mL"},
      {"measurement": "reduced glass transition temperature (Tg/Tm)", "setting": "[2]", "value": 0.67},
      {"measurement": "Tg (glass transition temperature)", "setting": "[2]; neat drug", "value": 10, "unit": "°C"},
      {"measurement": "factor of increase of equilibrium solubility", "setting": "[10]; pH 5.8", "value": "~6"},
      {"measurement": "factor of increase of equilibrium solubility", "setting": "[10]; pH 6.5", "value": "~3"},
      {"measurement": "solubility thermodynamic", "setting": "physchem [11]", "value": "0.015 to 0.018", "unit": "mg/mL"},
      {"measurement": "solubility", "setting": "physchem [11]; 37 °C, pH 1.6, simulated gastric fluid, thermodynamic from solid", "value": "0.0152 ± 0.0014", "unit": "mg/mL"},
      {"measurement": "solubility", "setting": "physchem [11]; 37 °C, pH 3, aqueous buffer, thermodynamic from solid", "value": "0.0178 ± 0.0003", "unit": "mg/mL"},
      {"measurement": "solubility", "setting": "physchem [11]; 37 °C, pH 5, aqueous buffer, thermodynamic from solid", "value": "0.0168 ± 0.0001", "unit": "mg/mL"},
      {"measurement": "solubility", "setting": "physchem [11]; 37 °C, pH 5.8, aqueous buffer, thermodynamic from solid", "value": "0.017 ± 0.0003", "unit": "mg/mL"},
      {"measurement": "solubility", "setting": "physchem [11]; 37 °C, pH 5.8, fessif, thermodynamic from solid", "value": "0.1081 ± 0.0001", "unit": "mg/mL"},
      {"measurement": "solubility", "setting": "physchem [11]; 37 °C, pH 6.5, aqueous buffer, thermodynamic from solid", "value": "0.0162 ± 0.0014", "unit": "mg/mL"},
      {"measurement": "solubility", "setting": "physchem [11]; 37 °C, pH 6.5, fassif, thermodynamic from solid", "value": "0.0538 ± 0.004", "unit": "mg/mL"},
      {"measurement": "solubility", "setting": "physchem [11]; pH 5.8", "value": "~0.11", "unit": "mg/mL"}
    ]}
  ]
}
